Source: patent publication US5405864A, “Chemotherapeutic maleimides” (Syntex (U.S.A.) Inc., priority 1993, dated 1995)

Key:
[1] = toxicity in mice of the Small Cell Lung Carcinoma Xenograft Assay; type: in vivo, Female athymic nude mice
Procedure: (§1) H82 small cell lung carcinoma (SCLC) cells are thawed from frozen stock and grown in RPMI. Prior to injection, the cells are trypsinized, counted, and resuspended in PBS:solubilized basement membrane preparation (Matrigel®) (1:2) to concentrations of 5×10^5 or 1.5×10^6 […]. Female athymic nude mice, 4-5 weeks old (Harlan Sprague Dawley) receive 200R/mouse irradiation one day prior to challenge, and are given 0.2 ml SCLC/mouse by subcutaneous injection in the flank (concentrations of 1×10^5 or 3×10^5 SCLC cells/mouse). Groups of 30 mice are treated intraperitoneally, once a day, with test compound at 10 mg/kg (solubilized in DMSO and diluted to final vehicle concentration of 20% DMSO in PBS). Treatments are started 2 hours post-challenge and continue for 45 days. Vehicle treated and untreated mice are used as controls.

breast cell line MDA-N = experiment: tumor cell growth inhibition in culture, breast cell line MDA-N; type: cell-based; details: Homo sapiens, read-out: GI50 (concentration to inhibit tumor cell growth in culture by 50%)
From the text: (§2) The compounds of the present invention are protein kinase C inhibitors useful as chemotherapeutic agents for treating mammals, particularly humans, having a variety of malignant disease states including: small cell lung carcinoma, colon carcinoma, breast tumors corresonding to MCF7, MDA-MB-435 and MDA-N cell lines, and PKC overexpressing tumors, such as those corresponding to CHO/PKC-ε. […] For example, 3-[1-(3-isothioureidopropyl)-2-(thianaphthen-2-yl)indol-3-yl]-1H-pyrrole-2,5-dione has a GI50 (concentration to inhibit tumor cell growth in culture by 50%) of […] against breast cell line MDA-N versus 1 μM against colon carcinoma cell line HT-29.

β1 isozyme of PKC = target: T1, β1 isozyme of PKC (Rattus norvegicus, UniProt P68403); experiment: Protein kinase C inhibition assay (32P incorporation from γ-32P ATP into synthetic peptide substrate); type: biochemical; details: β1 isozyme of PKC from rat brain; 50 μM ATP; five minutes at room temperature
T1 construct: β1 isozyme of PKC from rat brain; from tissue; host or cells: rat brain
T1 sequence (P68403 whole entry): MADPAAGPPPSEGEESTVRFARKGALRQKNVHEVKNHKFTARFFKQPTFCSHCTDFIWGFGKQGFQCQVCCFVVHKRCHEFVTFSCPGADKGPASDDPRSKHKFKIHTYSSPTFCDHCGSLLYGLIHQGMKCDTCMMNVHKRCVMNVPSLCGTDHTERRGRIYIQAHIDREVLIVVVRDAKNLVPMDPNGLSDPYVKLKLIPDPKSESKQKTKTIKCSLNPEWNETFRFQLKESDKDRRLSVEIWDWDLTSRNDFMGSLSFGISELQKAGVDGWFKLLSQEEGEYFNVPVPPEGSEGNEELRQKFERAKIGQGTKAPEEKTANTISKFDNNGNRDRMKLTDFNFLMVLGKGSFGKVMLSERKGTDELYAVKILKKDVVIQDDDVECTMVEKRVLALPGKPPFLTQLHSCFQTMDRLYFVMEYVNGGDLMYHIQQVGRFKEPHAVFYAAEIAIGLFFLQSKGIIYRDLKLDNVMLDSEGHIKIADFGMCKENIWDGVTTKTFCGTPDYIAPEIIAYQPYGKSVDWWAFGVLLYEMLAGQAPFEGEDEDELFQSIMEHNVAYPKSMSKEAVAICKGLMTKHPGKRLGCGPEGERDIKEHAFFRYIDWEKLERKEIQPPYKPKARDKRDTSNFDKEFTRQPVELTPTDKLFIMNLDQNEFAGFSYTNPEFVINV
Procedure: In vitro activity for protein kinase C inhibition, is quantitated by measuring incorporation of ^32 P from γ-^32 P ATP into synthetic peptide substrates.
Protein Kinase C (PKC) inhibitory activity is quantitated by measuring incorporation of ^32 P from γ-^32 P ATP into synthetic peptide substrates. The inhibitory potential is measured using the β1 isozyme of PKC from rat brain and the synthetic peptide substrate ala-lys-arg-arg-arg-leu-ser-ser-leu-arg-ala.
A reaction mixture containing 25 mM Tris-HCl, pH 7.5, 2.5 mM Mg(NO3), 1.0 mM EGTA, 20 μM substrate, 1 μg/mL phosphatidylserine (PS), 5×10^-6 M diacylglycerol(di-C8), and 50 μM ATP is spiked with γ-^32 P ATP (>5,000 Ci/mmol) to provide approximately 10^6 CPM per reaction and 0.08 μg/mL PKC in a 50 μl volume per well. The assay is run with or without test compound, added at various concentrations. After five minutes incubation at room temperature, the reaction is stopped by the addition of 0.2V of a 50% TCA solution. A 30 μl sample from each well (control and test compound) is then spotted onto Whatman P-81 ion exchange chromatography paper, and 32-P incorporation is then counted on a Beckman LS 5000 TA liquid scintillation counter. The percent inhibition of PKC activated by […] diC8 and 1 μg/mL phosphatydil serine is determined according to the formula: […]
and the concentration necessary to achieve 50% Inhibition is determined.

[2] = system: colon carcinoma cell line HT-29; experiment: tumor cell growth inhibition in culture, colon carcinoma cell line HT-29; type: cell-based; details: Homo sapiens, read-out: GI50 (concentration to inhibit tumor cell growth in culture by 50%)
From the text: as §2

HT-29 colon cancer cells = experiment: Colon Carcinoma Xenograft Assay; type: in vivo, Female athymic nude mice
Procedure: (§3) In vivo activity for chemotherapeutic agents, particularly for treating malignant diseases, is determined by tumor inhibition assays, for example as described by Maneckjee, et al., in Proc. Natl. Acad. Sci. USA, Vol 89, 1169-1173 (February 1992). Variations of the assay can be performed, e.g., using HT-29 colon carcinoma cells, SCLC H82 cells, CHO/PKC-β and CHO/PKC-ε cells.
as §1
(§4) Statistical Analysis: A Fisher Exact test [Kendall M., Stuart A., The Advanced Theory of Statistics, Vol., 2 (MacMillan Pub. Co. N.Y., 1979)] is used to compare tumor occurrence rates between groups. The Mann Whitney U test [Hollander N., Wolfe D. A., Non-parametric Statistical Methods (John Wiley and Sons, Inc., N.Y., 1973)] is used to compare differences in survival time and a log rank test (Kalbfleisch J. D., Prentice R. L., The Statistical Analysis of Failure Time Data (John Wiley and Sons, Inc., N.Y. 1980)] is used to compare the time for each tumor to reach 2000 mm^3.
By following the procedure of Example 18 and substituting H82 small cell lung carcinoma cells with HT-29 colon cancer cells, grown to a concentration of 5×10^6 cells/ml and administered at a concentration of 1×10^6 cells/mouse, activity against colon carcinoma is determined.

[3] = system: H82 small cell lung carcinoma (SCLC) cells; experiment: Small Cell Lung Carcinoma Xenograft Assay; type: in vivo, Female athymic nude mice
Procedure: as §3
This procedure is a modification of a procedure described by Maneckjee, et al., in Proc. Natl. Acad. Sci. USA, Vol 89, 1169-1173 (February 1992).
as §1, §4

Row | SMILES | toxicity (in words) ([1]; 10 mg/kg intraperitoneally once a day) | LD50 at 144 h ([1]; mouse, in vivo, ip, after 6 days, read-out: chronic LD50) [mg/kg] | GI50 (breast cell line MDA-N) [nM] | IC50 (β1 isozyme of PKC) [nM] | GI50 [2] [nM] | prevention of HT-29 tumor formation (in words) (HT-29 colon cancer cells; 1×10^6 cells/mouse, procedure of Example 18) | number of mice having tumors ≥2000 mm^3 at Day 42 of treatment (in words) (HT-29 colon cancer cells; HT-29, 1×10^6 cells/mouse, p<0.05) | tumor size, fold smaller than vehicle-treated or untreated control groups (HT-29 colon cancer cells; HT-29, 1×10^6 cells/mouse, procedure of Example 18) | median time for the tumor volume to reach 2000 mm^3 (HT-29 colon cancer cells; HT-29, 1×10^6 cells/mouse, vehicle-treated control Day 33 (p<0.01)) [days] | extension of median time for the tumor volume to reach 2000 mm^3 (HT-29 colon cancer cells; HT-29, 1×10^6 cells/mouse, vs vehicle-treated control Day 33 (p<0.01)) [days] | inhibition of tumor growth (in words) (HT-29 colon cancer cells; HT-29 xenograft, 1×10^6 cells/mouse, 10 mg/kg i.p. once a day (procedure of Example 18)) | prevention of SCLC tumor formation (in words) ([3]; 10 mg/kg intraperitoneally once a day, 45 days) | inhibition of tumor growth (in words) ([3]; SCLC H82 xenograft, 10 mg/kg intraperitoneally once a day, 45 days) | tumor size, fold smaller than vehicle-treated or untreated control groups ([3]; challenge of 1×10^5 SCLC cells/mouse, 10 mg/kg i.p. once a day) [fold] | median time for the tumor volume to reach 2000 mm^3 ([3]; challenge of 1×10^5 SCLC cells/mouse, 10 mg/kg i.p. once a day, vehicle-treated control Day 35 (p<0.001)) [days] | extension of median time for the tumor volume to reach 2000 mm^3 ([3]; challenge of 1×10^5 SCLC cells/mouse, 10 mg/kg i.p. once a day, vs vehicle-treated control Day 35 (p<0.001)) [days] | tumor size, fold smaller than vehicle-treated or untreated control groups ([3]; challenge of 3×10^5 SCLC cells/mouse, 10 mg/kg i.p. once a day) | median time for the tumor volume to reach 2000 mm^3 ([3]; challenge of 3×10^5 SCLC cells/mouse, 10 mg/kg i.p. once a day, vehicle-treated control Day 31 (p<0.001)) [days] | extension of median time for the tumor volume to reach 2000 mm^3 ([3]; challenge of 3×10^5 SCLC cells/mouse, 10 mg/kg i.p. once a day, vs vehicle-treated control Day 31 (p<0.001)) [days] | number of mice having tumors ≥2000 mm^3 at Day 42 of treatment (in words) ([3]; either challenge level (3×10^5 or 1×10^5 SCLC cells/mouse), 10 mg/kg i.p. once a day, p<0.05)
1 | N=C(N)SCCCn1c(-c2cc3ccccc3s2)c(C2=CC(=O)NC2=O)c2ccccc21 [3-[1-(3-isothioureidopropyl)-2-(thianaphthen-2-yl)indol-3-yl]-1H-pyrrole-2,5-dione] | exhibitied toxicity at 10 mg/kg | ~20 | 10 | 3 | 1000 | not preventing HT-29 tumor formation entirely | reduced | approximately 1.5 fold | 37 | 4 | did significantly slow tumor growth | not preventing SCLC tumor formation entirely | did significantly slow tumor growth | ~3 | > 42 | > 7 | approximately 2 fold | 39 | 8 | reduced with either challenge level
2 | NCCCn1c(-c2cc3ccccc3s2)c(C2=CC(=O)NC2=O)c2ccccc21 [3-[1-(3-aminopropyl)-2-(thianaphthen-2-yl)indol-3-yl]-1H-pyrrole-2,5-dione] | – | – | – | 40 | – | – | – | – | – | – | – | – | – | – | – | – | – | – | – | –
